Experimental data taken from patent publication US20230028441A1, “NOVEL HETEROARYL-TRIAZOLE COMPOUNDS AS PESTICIDES” (Bayer Aktiengesellschaft, priority 2019, published 2023).
Where two headings read alike, the source gives them in different places.

Key:
Type in all cases: in vivo
[1] = test system: green peach aphid (Myzus persicae); test: Myzus persicae oral test; conditions: 120 h
In short: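 Readout: % mortality at day 5, where 100% = all aphids dead and 0% = none dead. Feeding via parafilm membrane over compound in IPL41 medium (33%+15% sugar); mixed-age population. Stock in acetone (1:100 w/w), water-diluted.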

[2] = test system: cattle tick larvae (Rhipicephalus microplus), strain Parkhurst, resistant against synthetic pyrethroids; test: Rhipicephalus (Boophilus) microplus in-vitro contact test, larval cattle tick; conditions: read-out: efficacy (larvae dead or moribund)
In short: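 Efficacy, 100% meaning all larvae dead or moribund, was judged at 48 h from loss of negative geotactic climbing. Larvae of the Parkhurst strain, 20–50 per tube, were exposed at 27° C and 85% humidity to acetone-coated tube surfaces; 900 ppm corresponded to 5 μg/cm^2.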

[3] = test system: fall armyworm larvae (Spodoptera frugiperda); test: Spodoptera frugiperda spray test (maize leaf sections); conditions: 168 h
In short: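 Percent kill of Spodoptera frugiperda larvae was recorded 7 days after infesting dried, treated maize leaf sections. Spray solutions were made from an acetone/DMF compound preparation diluted with 1000 ppm emulsifier-containing water.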

[4] = test system: adult brown dog ticks (Rhipicephalus sanguineus); test: Rhipicephalus sanguineus in-vitro contact test with adult brown dog ticks; conditions: after 48 hours, read-out: efficacy (ticks dead or moribund); for pest or weed control at 5 µg/cm2, 500 g/ha: 5 μg/cm^2 (=500 g/ha)
In short: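 Efficacy is the percentage of adult ticks dead or moribund, meaning immotile or uncoordinated and unable to escape 45-50° C. heat within 5 min. Read 48 h after 5-10 ticks were enclosed at room temperature in acetone-coated glass tubes. Dose 5 μg/cm^2, from a 900 ppm coating solution.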

[5] = test system: larvae of the banded cucumber beetle (Diabrotica balteata); test: Diabrotica balteata spray test; conditions: 168 h, read-out: efficacy (seedlings grown up)
In short: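 Efficacy (%) read at day 7: 100% means seedlings grew like untreated, uninfested controls; 0% means no seedlings grew. Wheat seeds germinated 1 day on agar, sprayed with emulsified compound solution (1000 ppm emulsifier in water), then each well infested with 10-20 larvae.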

[6] = test system: caterpillars of the fall army worm (Spodoptera frugiperda); test: Spodoptera frugiperda spray test (cotton leaves); conditions: 168 h
Experimental: Solvent: 14 parts by weight of dimethylformamide
Emulsifier: alkylaryl polyglycol ether
(§1) To produce a suitable preparation of active compound, 1 part by weight of active compound is mixed with the stated amount of solvent and is diluted with water, containing an emulsifier concentration of 1000 ppm, to the desired concentration. Further test concentrations are prepared by dilution with emulsifier containing water. Ammonium salt and/or penetration enhancer in a dosage of 1000 ppm are added to the desired concentration if necessary.
Cotton leaves (Gossypium hirsutum) are treated by being sprayed with the preparation of the active compound of the desired concentration and are infested with caterpillars of the fall army worm (Spodoptera frugiperda).
After 7 days mortality in % is determined. 100% means all the caterpillars have been killed and 0% means none of the caterpillars have been killed.

[7] = test system: adult engorged female ticks (Rhipicephalus microplus); test: Rhipicephalus (Boophilus) microplus injection test; conditions: 168 h, read-out: efficacy (infertile eggs)
In short: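 Efficacy is the share of infertile eggs: 100% means none are fertile, 0% means all are fertile. Egg deposition was checked 7 days after injecting 1 μL of DMSO-diluted compound into the abdomen of five engorged female R. microplus, with doubtful eggs kept about 42 days to hatching. The stock was 10 mg in 0.5 mL DMSO.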

[8] = test system: adult unfed cat fleas (Ctenocephalides felis); test: Ctenocephalides felis oral test; conditions: 48 h
In short: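 Percent flea mortality recorded at 2 days. Compound was dissolved in dimethyl sulfoxide and diluted into cattle blood, which ~20 unfed adult cat fleas ingested through parafilm from a 37°C-heated chamber, their own chamber kept at room temperature.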

[9] = test system: larvae of the southern green stink bug (Nezara viridula); test: Nezara viridula spray test; conditions: in Hordeum vulgare, 96 h
In short: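 Percent mortality of southern green stink bug larvae read 4 days after spraying infested Hordeum vulgare. Test solutions: compound in acetone plus dimethylformamide, diluted with emulsifier-containing water (1000 ppm alkylarylpolyglycol ether).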

[10] = test system: adult cat fleas (Ctenocephalides felis); test: Ctenocephalides felis in-vitro contact test, adult cat flea; conditions: 5 μg/cm^2 (=500 g/ha), after 48 hours, read-out: efficacy (fleas dead or moribund)
In short: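 Efficacy (%) counts fleas that are dead or moribund, meaning unable to escape heat (45-50 °C, ≤5 min) by climbing. Scoring was done 48 h after 5-10 adults were placed at room temperature in glass tubes. The tubes carried a dried acetone film of compound, 5 μg/cm^2 at 900 ppm.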

[11] = test system: green peach aphid (Myzus persicae); test: Myzus persicae spray test; conditions: foliar, 120 h, 100 g/ha, after 5 days, Chinese cabbage leaf disks
Experimental: Solvent: 78.0 parts by weight acetone • 1.5 parts by weight dimethylformamide
Emulsifier: alkylarylpolyglycol ether
as §1, with “solvents” for “solvent”, “water.” for “water. Ammonium salt and/or penetration enhancer in a dosage of 1000 ppm are added to the desired concentration if necessary.”
Chinese cabbage (Brassica pekinensis) leaf disks infected with all instars of the green peach aphid (Myzus persicae), are sprayed with a preparation of the active ingredient of the desired concentration.
After 5 days mortality in % is determined. 100% means all aphids have been killed and 0% means none of the aphids have been killed.

[12] = 5 μg/cm^2 (=500 g/ha), after 48 hours
[13] = 100 g/ha (=32 μg/well), after 7 days, wheat seeds
[14] = 500 g/ha (=160 μg/well), after 7 days, wheat seeds
[15] = 4 μg/animal, egg deposition after 7 days
[16] = 20 μg/animal, egg deposition after 7 days
[17] = 100 ppm in cattle blood, after 2 days

Structure (SMILES)	mortality at 4 ppm [1] [%]	mortality at 100 g/ha [3] [%]	mortality at 500 g/ha [3] [%]	pest or weed control at 5 µg/cm2, 500 g/ha [4] [%]	mortality at 20 ppm [6] [%]	mortality at 500 g/ha [9] [%]	pest or weed control at 5 µg/cm2 [2, 12] [%]	pest or weed control at 32 µg/disc, 100 g/ha [5, 13] [%]	pest or weed control at 160 µg/disc, 500 g/ha [5, 14] [%]	pest or weed control at 0.004 mg [7, 15] [%]	pest or weed control at 0.02 mg [7, 16] [%]	mortality at 100 ppm [8, 17] [%]	pest or weed control at 5 µg/cm2 [10] [%]	mortality at 100 g/ha [9] [%]	other results
COC(=O)Nc1nc(C(C)NC(=O)c2cc(Cl)cc(C(F)(F)F)c2)n(-c2ccc(Cl)cn2)n1 (racemic) [I-010, methyl N-[1-(5-chloro-2-pyridyl)-5-[1-[[3-chloro-5-(trifluoromethyl)benzoyl]amino]ethyl]-1,2,4-triazol-3-yl]carbamate]	90	100	100	100	80	–	–	–	–	–	–	–	–	–	pest or weed control at 5 µg/cm2 ([2]; 48 h): 100%; pest or weed control at 1 µg/cm2, 100 g/ha ([4]; 1 μg/cm^2 (=100 g/ha)): 100%; pest or weed control at 32 µg/disc, 100 g/ha [5]: 100%; pest or weed control at 160 µg/disc, 500 g/ha [5]: 100%; pest or weed control at 0.004 mg [7]: 100%; pest or weed control at 0.02 mg [7]: 100%; mortality at 100 ppm [8]: 100%
CC(=O)Nc1nc(C(C)NC(=O)c2cc(Cl)cc(C(F)(F)F)c2)n(-c2ccc(Cl)cn2)n1 (racemic) [I-011, N-[1-[5-acetamido-2-(5-chloro-2-pyridyl)-1,2,4-triazol-3-yl]ethyl]-3-chloro-5-(trifluoromethyl)benzamide]	100	100	100	80	100	90	100	100	100	100	100	100	–	–	–
CC(NC(=O)c1cc(Cl)cc(C(F)(F)F)c1)c1nc(NC(=O)C2CC2(F)F)nn1-c1ccc(Cl)cn1 (centres unmarked) [I-018]	–	–	–	–	100	–	100	100	100	100	100	100	100	–	–
CSc1nc(C(C)NC(=O)c2cc(Cl)cc(C(F)(F)F)c2)n(-c2ccc(Cl)cn2)n1 (centres unmarked) [I-062]	–	–	100	100	100	100	100	100	100	100	100	–	100	100	–
CC(NC(=O)c1cc(OC(F)(F)F)cc(C2CC2)c1)c1nc(N)nn1-c1ncccn1 (centres unmarked) [I-097]	100	100	–	–	100	–	90	100	–	100	–	100	90	100	mortality at 100 g/ha [11]: 100%
CNc1nc(C(C)NC(=O)c2cc(Cl)cc(OC(F)(F)F)c2)n(-c2ncccn2)n1 (centres unmarked) [I-099]	100	100	–	80	100	–	90	100	–	100	–	100	100	–	–
